Experimental findings from ChEMBL document CHEMBL1250518, “Nonsteroidal dissociated glucocorticoid agonists containing azaindoles as steroid A-ring mimetics” (J Med Chem, 2010) are described below.

For data set [1], the target named is T1, Mineralocorticoid receptor (Homo sapiens, UniProt P08235).
T1 sequence (P08235 whole entry): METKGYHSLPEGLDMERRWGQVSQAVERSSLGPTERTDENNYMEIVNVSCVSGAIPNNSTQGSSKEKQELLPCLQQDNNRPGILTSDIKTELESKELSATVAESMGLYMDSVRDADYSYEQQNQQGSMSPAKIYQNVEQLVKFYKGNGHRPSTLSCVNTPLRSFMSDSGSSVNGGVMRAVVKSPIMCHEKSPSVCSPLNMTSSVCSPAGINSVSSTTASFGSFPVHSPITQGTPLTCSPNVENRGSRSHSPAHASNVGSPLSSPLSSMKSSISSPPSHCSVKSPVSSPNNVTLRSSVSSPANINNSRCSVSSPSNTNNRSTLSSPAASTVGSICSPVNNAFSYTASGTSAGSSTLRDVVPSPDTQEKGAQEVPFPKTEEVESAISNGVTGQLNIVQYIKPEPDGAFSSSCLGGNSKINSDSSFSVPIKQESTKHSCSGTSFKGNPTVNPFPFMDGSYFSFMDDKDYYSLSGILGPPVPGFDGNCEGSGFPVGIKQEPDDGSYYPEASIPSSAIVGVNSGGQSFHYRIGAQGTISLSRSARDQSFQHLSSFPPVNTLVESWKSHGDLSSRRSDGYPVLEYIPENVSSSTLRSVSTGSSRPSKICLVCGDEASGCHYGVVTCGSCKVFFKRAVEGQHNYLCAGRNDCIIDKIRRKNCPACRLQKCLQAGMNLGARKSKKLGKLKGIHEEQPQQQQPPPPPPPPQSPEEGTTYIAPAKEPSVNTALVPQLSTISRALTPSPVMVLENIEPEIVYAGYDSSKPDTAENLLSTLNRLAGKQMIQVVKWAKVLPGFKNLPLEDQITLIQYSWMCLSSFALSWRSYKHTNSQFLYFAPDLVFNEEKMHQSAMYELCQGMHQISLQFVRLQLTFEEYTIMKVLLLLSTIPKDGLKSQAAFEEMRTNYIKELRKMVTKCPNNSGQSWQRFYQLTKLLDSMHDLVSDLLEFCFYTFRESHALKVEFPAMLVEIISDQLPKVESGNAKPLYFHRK
Briefly: Binding affinity to mineralocorticoid receptor expressed in baculovirus-infected insect cells using tetramethylrhodamine labeled Dexamethasone by fluorescence polarization microplate assay.

The test system of data set [2] is Mus musculus. Briefly: Antiinflammatory effect in collagen and Freund's complete adjuvant-induced B10.RIII mouse arthritis model assessed as inhibition of disease progression administered as po qd for 5 weeks. Conditions: 840 h. Format: functional.
Data set [3] deals with Mus musculus. Nature of the data set: Toxicity in collagen and Freund's complete adjuvant-induced B10.RIII mouse arthritis model assessed as increase of triglyceride level at 30 mg/kg, po qd for 5 weeks. In kind it is organism-based. Set-up: dose 30 mg/kg, route oral. Conditions: in vivo, 840 h.
Data set [4] concerns Mus musculus. Briefly: Toxicity in collagen and Freund's complete adjuvant-induced B10.RIII mouse arthritis model assessed as increase of free fatty acids level at 30 mg/kg, po qd for 5 weeks. Format: organism-based. Further details: dose 30 mg/kg, route oral. Conditions: in vivo, 840 h.
Data set [5] has as its system Mus musculus. Briefly: Toxicity in B10.RIII mouse assessed as increase of serum insulin level at 30 mg/kg, po qd for 5 weeks. Format: organism-based. Further details: dose 30 mg/kg, route oral. Conditions: in vivo, 840 h.
For data set [6], the system named is Mus musculus. Briefly: Toxicity in B10.RIII mouse assessed as increase of body fat content at 30 mg/kg, po qd for 5 weeks. Conditions: in vivo, 840 h. Format: organism-based. Further details: dose 30 mg/kg, route oral.
Data set [7] relates to Mus musculus. Briefly: Toxicity in B10.RIII mouse assessed as increase of triglyceride level at 30 mg/kg, po qd for 5 weeks. Format: organism-based. Further details: dose 30 mg/kg, route oral. Conditions: in vivo, 840 h.
Data set [8] deals with Mus musculus. Nature of the data set: Toxicity in collagen and Freund's complete adjuvant-induced B10.RIII mouse arthritis model assessed as increase of serum insulin level at 30 mg/kg, po qd for 5 weeks. In kind it is organism-based. Set-up: dose 30 mg/kg, route oral. Conditions: in vivo, 840 h.
Data set [9] concerns Mus musculus. Nature of the data set: Toxicity in collagen and Freund's complete adjuvant-induced B10.RIII mouse arthritis model assessed as increase of body fat content at 30 mg/kg, po qd for 5 weeks. In kind it is organism-based. Further details: dose 30 mg/kg, route oral. Conditions: in vivo, 840 h.
Data set [10] concerns Mus musculus. Nature of the data set: Antiinflammatory effect in collagen and Freund's complete adjuvant-induced B10.RIII mouse arthritis model assessed as inhibition of disease progression at 30 mg/kg, po qd for 5 weeks. In kind it is functional. Conditions: 840 h.
A short description of data set [11]: AUC (infinity) in Sprague-Dawley rat at 30 mg/kg, po. In kind it is ADME, organism-based, Plasma. Set-up: time infinity, dose 30 mg/kg, route oral. Conditions: Sprague-Dawley, plasma.
Data set [12] deals with T2, Glucocorticoid receptor (Homo sapiens, UniProt P04150).
T2 sequence (P04150 whole entry): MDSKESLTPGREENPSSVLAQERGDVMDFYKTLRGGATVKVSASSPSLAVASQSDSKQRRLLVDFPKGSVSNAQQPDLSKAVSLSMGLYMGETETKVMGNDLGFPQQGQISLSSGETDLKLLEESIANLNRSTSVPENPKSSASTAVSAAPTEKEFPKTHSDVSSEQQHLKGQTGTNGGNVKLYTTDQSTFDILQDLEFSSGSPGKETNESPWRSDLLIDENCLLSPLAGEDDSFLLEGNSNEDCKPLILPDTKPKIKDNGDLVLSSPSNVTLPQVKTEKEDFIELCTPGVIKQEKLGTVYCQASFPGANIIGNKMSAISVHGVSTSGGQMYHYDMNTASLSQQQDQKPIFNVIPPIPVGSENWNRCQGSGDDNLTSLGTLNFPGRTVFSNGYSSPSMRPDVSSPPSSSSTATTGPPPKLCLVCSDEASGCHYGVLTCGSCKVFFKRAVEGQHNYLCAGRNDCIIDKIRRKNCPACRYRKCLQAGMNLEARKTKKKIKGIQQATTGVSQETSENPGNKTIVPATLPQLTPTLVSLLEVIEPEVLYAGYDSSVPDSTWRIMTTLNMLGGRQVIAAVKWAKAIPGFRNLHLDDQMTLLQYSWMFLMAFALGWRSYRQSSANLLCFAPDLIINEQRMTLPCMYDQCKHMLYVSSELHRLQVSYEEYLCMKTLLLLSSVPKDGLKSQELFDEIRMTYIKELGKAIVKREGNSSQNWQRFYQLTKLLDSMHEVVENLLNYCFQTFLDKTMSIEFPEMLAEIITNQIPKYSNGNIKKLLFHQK
Briefly: Transactivation activity at glucocorticoid receptor in HFF assessed as induction of aromatase activity after 18 to 24 hrs by ELISA. Format: cell-based. A general note: In an ELISA, binding on a coated surface is turned into a signal by an enzyme label.

Data set [13] in a line: Tmax in Sprague-Dawley rat at 30 mg/kg, po. In kind it is ADME, organism-based. Further details: dose 30 mg/kg, route oral. Conditions: in vivo.
Data set [14] deals with T2, Glucocorticoid receptor. Briefly: Transrepression activity at glucocorticoid receptor in HFF assessed as inhibition of IL-1-induced IL-6 production after 18 to 24 hrs by ELISA. In kind it is cell-based.
Data set [15] can be described thus: Oral bioavailability in Sprague-Dawley rat at 30 mg/kg. Format: ADME, organism-based. Conditions: Sprague-Dawley, in vivo.
The nature of data set [16]: Volume of distribution at steady state in Sprague-Dawley rat at 5 mg/kg, iv. Format: ADME, organism-based. Set-up: dose 5 mg/kg, route intravenous. Conditions: in vivo, read-out: Vdss.
Data set [17] in a line: Half life in Sprague-Dawley rat at 5 mg/kg, iv. Conditions: in vivo. Set-up: dose 5 mg/kg, route intravenous. In kind it is ADME, organism-based.
The target in data set [18] is T2, Glucocorticoid receptor. Nature of the data set: Binding affinity to glucocorticoid receptor expressed in baculovirus-infected insect cells using tetramethylrhodamine labeled Dexamethasone by fluorescence polarization microplate assay. Background: In fluorescence polarisation assays a small probe gives low polarisation when free and higher when bound to something large.

Data set [19] deals with T2, Glucocorticoid receptor. Nature of the data set: Transactivation activity at glucocorticoid receptor in human HeLa cells transfected with luciferase gene linked to MMTV promoter by luciferase assay. Format: cell-based.
Data set [20] deals with T3, Progesterone receptor (Homo sapiens, UniProt P06401).
T3 sequence (P06401 whole entry): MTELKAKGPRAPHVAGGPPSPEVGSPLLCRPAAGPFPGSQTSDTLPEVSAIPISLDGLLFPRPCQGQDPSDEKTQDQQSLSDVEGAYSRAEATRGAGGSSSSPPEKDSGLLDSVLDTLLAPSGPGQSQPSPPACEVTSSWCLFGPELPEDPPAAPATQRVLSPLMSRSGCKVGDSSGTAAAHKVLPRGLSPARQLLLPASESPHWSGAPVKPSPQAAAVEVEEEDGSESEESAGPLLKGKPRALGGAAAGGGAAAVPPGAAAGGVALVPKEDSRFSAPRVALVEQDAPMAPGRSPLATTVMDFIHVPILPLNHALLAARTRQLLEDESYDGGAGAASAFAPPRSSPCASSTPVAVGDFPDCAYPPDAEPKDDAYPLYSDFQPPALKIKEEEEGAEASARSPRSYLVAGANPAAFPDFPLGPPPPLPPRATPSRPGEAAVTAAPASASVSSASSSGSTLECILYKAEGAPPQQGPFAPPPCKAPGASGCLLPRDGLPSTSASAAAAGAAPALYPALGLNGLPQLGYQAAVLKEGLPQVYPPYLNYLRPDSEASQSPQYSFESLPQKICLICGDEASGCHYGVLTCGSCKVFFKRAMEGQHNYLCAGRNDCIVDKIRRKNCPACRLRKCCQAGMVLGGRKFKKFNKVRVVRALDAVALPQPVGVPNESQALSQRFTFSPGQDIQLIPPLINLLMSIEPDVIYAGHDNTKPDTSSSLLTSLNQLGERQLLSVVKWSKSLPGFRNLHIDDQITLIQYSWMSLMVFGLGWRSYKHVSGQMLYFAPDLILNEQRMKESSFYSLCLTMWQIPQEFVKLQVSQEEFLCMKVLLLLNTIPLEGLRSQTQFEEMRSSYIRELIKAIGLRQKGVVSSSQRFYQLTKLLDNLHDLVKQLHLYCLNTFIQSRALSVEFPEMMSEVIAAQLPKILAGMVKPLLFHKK
Briefly: Binding affinity to progesterone receptor expressed in baculovirus-infected insect cells using tetramethylrhodamine labeled RU-486 by fluorescence polarization microplate assay.

Data set [21] is described as follows: Cmax in Sprague-Dawley rat at 30 mg/kg, po. Format: ADME, organism-based. Further details: dose 30 mg/kg, route oral. Conditions: in vivo.
Data set [22] in a line: Clearance in Sprague-Dawley rat at 5 mg/kg, iv. Conditions: in vivo. In kind it is ADME, organism-based. Set-up: dose 5 mg/kg, route intravenous.

With `C[C@]12C=CC(=O)C=C1CC[C@@H]1[C@@H]2[C@@H](O)C[C@@]2(C)[C@H]1CC[C@]2(O)C(=O)CO` [PREDNISOLONE], the IC50 in data set [1] is 44 nM. Also, the ED50 in [2] came to 10 mg/kg. The Activity entry in [3] is listed as “Toxic”; in data set [4] it was “Non-toxic”; in [5], “Toxic”; in data set [6], “Toxic”; in [7], “Toxic”; in data set [8] it was “Non-toxic”. In addition, the Activity result in data set [9] is on record as “Non-toxic”. In addition, in data set [10], the inhibition in vivo at 30 mg/kg came out at 77%.

For `COc1ccc(F)cc1C(C)(C)C[C@@](O)(Cc1cc2ccncc2[nH]1)C(F)(F)F`, the IC50 in [1] amounted to 380 nM; in data set [14] it was 6 nM; in data set [18], 1.4 nM; in data set [19], 20 nM; in data set [20] it was 1150 nM. In data set [11], this compound displayed an AUC(0-inf) of 1740 ng·h/mL. The EC50 in [12] came to 10 nM. The Tmax in data set [13] was found to be 2 h. In addition, in [15], the bioavailability worked out at 21%. The Vd in data set [16] amounted to 8.7 L/kg. Also, the half-life in [17] was 1.7 h. In [21], this compound gave a Cmax of 427 ng/mL. Moreover, the clearance in [22] turned out to be 61 mL/min/kg.

In the case of `COc1ccc(F)cc1C(C)(C)C[C@@](O)(Cc1cc2cnccc2[nH]1)C(F)(F)F`, the IC50 in [1] was determined as 58 nM; in [14], 2 nM; in [18] it was 1.4 nM; in data set [19] it was 22 nM; in data set [20], 600 nM. In addition, the EC50 in data set [12] was determined as 35 nM.

Usually IC50 stands for the concentration at which inhibition is half-maximal. As usually defined, the ED50 is the dose at which the effect has come halfway, by size or by number of responders. A word on the inhibition in vivo: it is how much of the control response was suppressed. What is called AUC(0-inf) is the area under the concentration-time curve extrapolated to infinity. The low end stands for low exposure, the high end for high exposure. What is called EC50 is the concentration giving half of the maximal effect. A word on the Tmax: it is the time at which the peak concentration occurs. What is called bioavailability is dose-corrected exposure relative to a reference, in per cent. High values mean good availability, low ones poor availability. In general, half-life refers to how long it takes for the measured level to halve. Higher therefore signals slow loss. As a reminder, the Cmax is the peak of the concentration-time curve. In general, clearance refers to the volume of plasma or blood freed of the substance per unit of time. High values mean a high capacity for elimination, low ones a low capacity for elimination.
